Laboratory results as given in US11673891B2, “Imidazopyrimidine compounds and uses thereof” (Dana-Farber Cancer Institute, Inc., priority 2017, dated 2023).

What was measured:
Assay type in all cases: cell-based
human adult PBMCs [1] = experiment: TNF production by ELISA after stimulation of human adult PBMCs; conditions: 33 μM, 18 hours
Protocol: Table 1. Activity of Exemplary Imidazopyrimidine Compounds on Stimulating TNF Production in PBMCs as Compared to Compound R848 Table 1 provides the activity of exemplary compounds on stimulating TNF production in PBMCs as compared to the benchmark compound R848. Specifically, TNF production was measured by ELISA after stimulation of adult PBMCs with compound 037 analog family or the compound R848 at 33 μM for 18 hours. Analogs are ranked top to bottom by median percentage TNF production (TNF %) as compared to R848 (N=3-5). The compounds have been classified in the following categories according to TNF %: high activity—class A: TNF %>15%; medium activity—class B: 1%<TNF %≤15%; low activity—class C: TNF %≤1%.
(§1) ELISAs and Multiplex-Analyte Assays. Supernatants derived from human PBMCs and DC stimulations were assayed by ELISA for TNF (ThermoFisher Scientific; Waltham, Mass., USA). Cytokine and chemokine expression profiles (e.g., IFNγ, IL-9, IL-10, IL-12 (p70), IL-13, IL-1β, IL-23, IL-27, IL-28A, IL-33, IL-6, MIP-3α/CCL20, and TNF) in cell culture supernatants were measured using a customized Milliplex® Human Th17 Magnetic Bead Panel according to the manufacturer's instructions (Millipore, Chicago, Ill., USA). Assays were read and analyzed on the Luminex® 100/200™ System and xPOTENT® software (Luminex, Austin, Tex.). A minimum threshold was set at the minimum detectable concentration for each individual assay, defined as three standard deviations above the mean background.
PBMCs were isolated from blood using a Ficoll density gradient. PBMCs either used fresh or were stored at 5×10^7 cells per vial in 1 mL RPMI containing 20% autologous plasma and 10% DMSO at −80° C. until use. Stimulation plates were prepared by transferring 0.66 μl of DMSO-dissolved compounds (10 mM) to each well of a round bottom 96-well plate. PBMCs isolated from human adult donors were resuspended at a concentration of 10^5 cells/200 μl of RPMI supplemented with 10% of platelet-poor plasma. 200 μl of the cell suspension were transferred to each well resulting in a final compound concentration of […]. After about 18 hours of incubation (37° C., 5% CO2), plates were spun down (500×g, room temperature, 5 minutes) and supernatants were harvested for further analysis.

[2] = tested on: Human adult and elderly PBMCs; experiment: Adult and elderly PBMCs stimulated with confirmed hit compounds, TNF and IL-1β by ELISA; conditions: 18 hours, N=5
Protocol: (FIG. 2A) Human adult (top) and elderly (bottom) PBMCs stimulated for 18 hours with the TLR7/8 agonist R848 and 24 confirmed hit compounds from TNF AlphaLISA screen. TNF (left panels) and IL-1β (right panels) were assessed in cell-free supernatants by ELISA. Data are shown as median and interquartile range of N=5.
as §1

human adult PBMCs [3] = experiment: 9-plex multiplex cytokine assay after stimulation of adult PBMCs; conditions: 0.1 μM-33 μM, 18 hours, 10% autologous plasma, fold-change over unstimulated control, N=4
Protocol: Shown is a 9-plex multiplex cytokine assay after stimulation of adult peripheral blood mononuclear cells (PBMCs) with compound 037 or R848 at four different concentrations (0.1 μM-33 μM). Radar plots of immune polarizing cytokine production from human adult PBMCs stimulated for 18 hours in 10% autologous plasma, represented as fold-change over RPMI unstimulated control (N=4).
as §1

PBMCs = experiment: TNF AlphaLISA screen on primary human PBMCs; conditions: robust Z score >2 in both duplicates and at least 2 of 3 donors
Protocol: TNF AlphaLISA screen was comprised of three parts: 1) human peripheral blood collection and PBMC isolation—human adult peripheral blood was collected with written consent. PBMCs were isolated from the blood using Ficoll density gradient. PBMCs were stored at 50 million cells per vial in 1 ml RPMI containing 20% autologous plasma and 10% DMSO at −80° C. until use; 2) TNFαLISA Assay—On Day 1, PBMCs were thawed in 37° C. water bath for 3 min and washed twice with PBS. Trypan blue viable cell count was obtained and cells were resuspended to viable 6.67×10^5 cells/ml in DMEM with 10% autologous plasma. Cells were dispensed in 30 μl per well in Corning 2712 black 384-well cell culture plates (final concentration was 20,000 cells/well). Controls were added to cells manually and the test compounds were added by robotic pin transfer. Plates were then incubated at 37° C./5% CO2 humidity-controlled incubator for 18 hours. On Day 2 of the assay, plates were centrifuged and 2 μl supernatants were collected into Perkin Elmer Alpha plates. Perkin Elmer Human TNFα kits (cat #AL208F) were used to detect the presence of TNFα in supernatants.
TNFαLISA Assay. Human adult peripheral blood was collected according to approved protocols. […] Viability was assessed by trypan blue staining and cells were then resuspended to 6.67×10^5 viable cells/mL in DMEM with 10% autologous plasma. […]

CCC(C(=O)Nc1cc(-c2cn3cccnc3n2)ccc1C)c1ccccc1 (stereo not shown) [Compound 37]
TNF (Median) (human adult PBMCs [1]; adult PBMCs, ELISA, median, N=3-5, unit not given (FIG. 6B/7B legends: TNF concentration in ng/ml)): 2.403 | Activity class (human adult PBMCs [1]; class according to TNF % as compared to R848, adult PBMCs): A (high activity—class A: TNF %>15%) | Production of human TNF by PBMCs (in words) (human adult PBMCs [1]; human adult PBMCs, ELISA): induces robust production of TNF-α | TNF % (Median) (human adult PBMCs [1]; median percentage TNF production as compared to R848, adult PBMCs, N=3-5): 69.79% | TNF and IL-1β induction from adult and elderly PBMCs (in words) [2]: induce TNF and IL-1β from adult and elderly PBMCs | Cytokine response, 9-plex multiplex (in words) (human adult PBMCs [3]): induced a broad concentration-dependent cytokine response | Hit in PBMC TNFαLISA screen (in words) (PBMCs): identified in the PBMC TNFαLISA screen
